Results from ChEMBL document CHEMBL1201862, “PubChem BioAssay data set” (2004).
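Results reflect a 48-hour exposure of cells in 96-well plates to compound at five concentrations. GI50 marks 50% less growth.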 The source made the active and inactive calls. Cut-off read from the data, not from the text of the source: active = GI50 up to about 1.1 µM and inactive = higher.

Key:
Experiment in all cases: DTP human tumour cell line panel, 48 h
HCC 2998 = system: HCC 2998
SF-268 = system: SF-268
SK-MEL-5 = system: SK-MEL-5
CAKI-1 = system: CAKI-1
HOP-92 = system: HOP-92
IGROV-1 = system: IGROV-1
HT-29 = system: HT-29
A549 = system: A549
ACHN = system: ACHN
SK-MEL-28 = system: SK-MEL-28
KM12 = system: KM12
XF498 = system: XF498
SR = system: SR
SNB-75 = system: SNB-75
OVCAR-8 = system: OVCAR-8
RXF 393 = system: RXF 393
HL-60 = system: HL-60
SK-MEL-2 = system: SK-MEL-2

Measured: GI50

COc1ccc(/C(Cl)=C(\c2ccc(OCCN(C)C)cc2)c2ccc(OC(=O)C(C)(C)C)cc2)cc1
inactive: HCC 2998 15.7 µM | SF-268 13.7 µM | SK-MEL-5 14 µM | CAKI-1 14.7 µM | HOP-92 18.1 µM | IGROV-1 17.7 µM | HT-29 3.85 µM | A549 15 µM | ACHN 16 µM | SK-MEL-28 11.1 µM | KM12 13.5 µM | XF498 11.5 µM | SR 7.69 µM | SNB-75 10.2 µM | OVCAR-8 15.8 µM | RXF 393 8.28 µM | HL-60 5.97 µM | SK-MEL-2 15.9 µM
